Key:
[1] = molecular target: T1, Adenosine receptor A1 (Homo sapiens, UniProt P30542); assay: Binding affinity to human A1AR assessed as inhibition constant
T1 sequence (P30542 whole entry): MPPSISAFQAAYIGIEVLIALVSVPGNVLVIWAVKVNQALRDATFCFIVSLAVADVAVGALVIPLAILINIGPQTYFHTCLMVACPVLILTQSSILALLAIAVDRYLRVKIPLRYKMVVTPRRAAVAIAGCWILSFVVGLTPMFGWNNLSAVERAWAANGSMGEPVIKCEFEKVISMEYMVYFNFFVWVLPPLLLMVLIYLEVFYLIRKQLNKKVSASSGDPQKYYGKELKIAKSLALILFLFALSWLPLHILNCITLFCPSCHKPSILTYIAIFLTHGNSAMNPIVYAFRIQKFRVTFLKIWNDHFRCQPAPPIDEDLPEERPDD

[2] = molecular target: Proto-oncogene tyrosine-protein kinase receptor Ret (Homo sapiens, UniProt P07949); assay: Inhibition of rearranged during transfection kinase (unknown origin)
[3] = molecular target: T2, Histone-lysine N-methyltransferase ASH1L (Homo sapiens, UniProt Q9NR48); assay: Binding affinity to ASH1L SET domain (2069 to 2288 residues) (unknown origin) assessed as dissociation constant by ITC analysis
[4] = molecular target: T3, Muscarinic acetylcholine receptor M1 (Homo sapiens, UniProt P11229); assay: Agonist activity at human M1 receptor; type: functional
T3 sequence (P11229 whole entry): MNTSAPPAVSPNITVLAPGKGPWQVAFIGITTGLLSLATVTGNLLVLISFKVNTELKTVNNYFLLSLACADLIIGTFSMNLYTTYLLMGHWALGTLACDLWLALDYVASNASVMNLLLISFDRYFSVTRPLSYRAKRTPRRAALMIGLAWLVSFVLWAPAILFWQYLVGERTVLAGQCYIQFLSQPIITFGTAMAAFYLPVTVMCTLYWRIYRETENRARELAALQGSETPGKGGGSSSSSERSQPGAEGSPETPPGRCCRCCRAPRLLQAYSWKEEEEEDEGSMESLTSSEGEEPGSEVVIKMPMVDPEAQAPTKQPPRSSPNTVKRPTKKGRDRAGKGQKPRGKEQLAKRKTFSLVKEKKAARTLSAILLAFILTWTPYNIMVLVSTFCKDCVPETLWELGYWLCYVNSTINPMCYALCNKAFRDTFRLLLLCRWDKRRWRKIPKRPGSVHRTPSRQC

[5] = molecular target: YEATS domain-containing protein 4 (Homo sapiens, UniProt O95619); assay: Inhibition of human N-terminal GST tagged GAS41 (1 to 148 residues) incubated for 1 hr by fluorescence polarization assay
[6] = molecular target: T2, Histone-lysine N-methyltransferase ASH1L; assay: Inhibition of N-terminal Mocr-tagged ASH1L (2069 to 2288 residues) (unknown origin) expressed in Escherichia coli BL21 (DE3) by […]

Chain of YEATS domain-containing protein 4 (O95619 whole entry, the tested form may be a part): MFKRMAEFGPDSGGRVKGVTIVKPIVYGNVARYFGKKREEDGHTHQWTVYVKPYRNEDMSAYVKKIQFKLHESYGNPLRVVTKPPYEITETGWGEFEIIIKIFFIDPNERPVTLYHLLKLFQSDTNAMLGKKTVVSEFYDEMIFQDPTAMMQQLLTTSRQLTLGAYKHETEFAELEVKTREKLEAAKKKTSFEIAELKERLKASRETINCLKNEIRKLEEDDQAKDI
Chain of Proto-oncogene tyrosine-protein kinase receptor Ret (P07949 whole entry, the tested form may be a part): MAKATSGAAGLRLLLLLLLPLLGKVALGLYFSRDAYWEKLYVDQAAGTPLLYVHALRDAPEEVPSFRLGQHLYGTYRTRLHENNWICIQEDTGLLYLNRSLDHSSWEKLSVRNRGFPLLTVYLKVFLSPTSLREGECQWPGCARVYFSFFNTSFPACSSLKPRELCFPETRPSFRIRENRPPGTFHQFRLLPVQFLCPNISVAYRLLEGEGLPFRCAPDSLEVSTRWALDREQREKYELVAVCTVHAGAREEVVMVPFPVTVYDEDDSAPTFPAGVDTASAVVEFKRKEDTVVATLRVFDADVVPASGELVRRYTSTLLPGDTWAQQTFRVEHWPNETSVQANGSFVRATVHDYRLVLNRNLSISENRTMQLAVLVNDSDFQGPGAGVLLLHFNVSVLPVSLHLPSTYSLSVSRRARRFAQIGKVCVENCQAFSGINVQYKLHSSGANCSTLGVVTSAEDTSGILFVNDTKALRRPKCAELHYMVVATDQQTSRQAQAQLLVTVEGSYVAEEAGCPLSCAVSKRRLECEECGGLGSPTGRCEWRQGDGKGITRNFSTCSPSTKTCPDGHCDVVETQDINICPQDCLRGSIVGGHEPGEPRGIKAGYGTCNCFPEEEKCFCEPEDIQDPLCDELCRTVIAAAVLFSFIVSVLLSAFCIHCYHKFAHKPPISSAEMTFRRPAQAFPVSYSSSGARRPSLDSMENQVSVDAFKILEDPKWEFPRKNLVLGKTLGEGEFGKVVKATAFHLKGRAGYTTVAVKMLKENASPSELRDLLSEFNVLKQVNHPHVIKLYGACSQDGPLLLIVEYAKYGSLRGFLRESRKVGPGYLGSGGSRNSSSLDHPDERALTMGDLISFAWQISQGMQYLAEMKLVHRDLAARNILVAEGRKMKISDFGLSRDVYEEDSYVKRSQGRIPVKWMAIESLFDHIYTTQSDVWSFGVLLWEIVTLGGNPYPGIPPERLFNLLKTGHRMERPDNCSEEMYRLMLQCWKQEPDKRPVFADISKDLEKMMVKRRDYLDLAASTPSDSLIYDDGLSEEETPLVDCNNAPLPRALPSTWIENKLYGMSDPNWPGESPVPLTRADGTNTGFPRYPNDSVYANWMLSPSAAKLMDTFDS

Question: Which Ki [1] does the source give for `CC(=O)Nc1nc2ccccc2s1` here?
Answer: 11 µM

Question: With `Nc1ncnc2[nH]ncc12` as the compound, how does the IC50 [2] read?
Answer: 9.2 µM

Question: `NC(=S)c1cccc(-n2cccc2)c1` was tested. Which Kd [3] did it give?
Answer: > 1000 µM

Question: How did the EC50 [4] turn out when `CCOC(=O)N1CCC(N2CCC(C(N)=O)CC2)CC1` was run?
Answer: 3.2 µM

Question: How did the IC50 [5] turn out when `O=C(Nc1ccc(C(=O)N2CC(c3nc4ccccc4s3)C2)s1)[C@@H]1C[C@@H](OCCCCCO[C@H]2CN[C@H](C(=O)Nc3ccc(C(=O)N4CC(c5nc6ccccc6s5)C4)s3)C2)CN1` was run?
Answer: 0.096 µM

Question: How did the IC50 [6] turn out when `CN1CC(C(=O)NCc2ccc3c(-c4cccc(C(N)=S)c4)cn(C4CCC(S(=O)(=O)C(F)(F)F)CC4)c3c2)C1` (stereo unspecified) was run?
Answer: 0.79 µM

Reference: ChEMBL document CHEMBL5380774, “Fragment-to-Lead Medicinal Chemistry Publications in 2021” (J Med Chem, 2023)
